Non-standard residues stand in square brackets, D forms with d. Residues, ends and D or L forms follow the SMILES beside them. 2Nal = N[C@@H](Cc1ccc2ccccc2c1)C(=O)O
How the values were obtained:
MN-11 cells = test: Luciferin-luciferase extracellular ATP, MN-11; type: cell-based, murine; settings: MN-11, 2 × IC50, peak at 0.5-hour
Protocol: On the other hand, MN-11 cells were seeded at the density of 25,000 cells/ well in the 96 well plate and allowed to adhere for 24 hours. Cells were treated with Nal-P-113, Bip-P-113 and Dip-P-113 at 2× IC50 for 0.5, 1, 1.5, and 2 hours. Untreated cells served as the control group. After being treated for different time points (0.5, 1, 1.5, and 2 hours), the supernatant of cells was analyzed using the ENLITEN ATP luciferase assay kit (Promega, Madison, WI, USA). The level of the extracellular ATP chemiluminescence was measured at 560 nm using the Wallac VICTOR 3 Multilabel plate reader (PerkinElmer, Shelton, CT, USA).
ATP release from MN-11 cells were measured using the luciferin-luciferase assay after peptide (2 × IC50) treatment (FIGS. 6B-6D). Nal-P-113 and Dip-P-113 reached the relative light unit (~ 11,000 RLU) peak at 0.5-hour, and Bip-P-113 reached the highest peak at 1 hour (~ 13,000 RLU).

[1] = system: MN-11 cells (fibrosarcoma); test: MN-11 fibrosarcoma tumor regression, intratumoral injection; type: in vivo
Protocol: Female C57BL/6 wild-type mice (4–5 weeks old) were obtained from the BioLASCO Taiwan Co., Ltd (Taiwan). All mice were housed in a specific pathogen-free and controlled environment. During the experiments, female mice, weighing 18–24 g each, were kept in groups of 4 to 6 animals per cage under climate-controlled conditions, with 12 h light/dark cycles and an ambient temperature. The mice were housed in an enriched individually ventilated cage system with free access to standard rodent chow and water ad libitum. The animals were anesthetized during the experimental procedures with 2.5% isoflurane gas. The animals were monitored daily and large-tumor-bearing mice were euthanized with isoflurane. All the procedures were conducted according to the regulations of Laboratory Animal Care and Use Committee or Group Setup and Management and the law of Animal Protection. All animal experiments were approved by National Tsing Hua University (approval ID: 110016), and the protocol was approved by Institutional Animal Care and Use Committee.
Pre-cultured MN-11 cells were harvested in a DMEM medium and inoculated total of 5×10^5 cells (mixed equal volume of matrigel) into the right flank of the abdomen in C57BL/6 mice with subcutaneous injection (6 mice/group). Palpable tumors (50-75 mm^3) were intratumorally injected (i.t.) with Nal-P-113 (1 mg/50 µl saline per mouse) for 3 consecutive days. Negative control (tumor only) mice received saline only (sterile H2O with 0.9% NaCl). Tumor size was measured every 2 days using a caliper, and the volume of tumors was calculated using the following formula: Tumor size (mm^3) = 0.5× (width^2×length). Animals were terminated when the tumor exceeded 2000 mm^3. The survival rates of tumor-bearing mice were observed and recorded continuously until all animals were dead. Additionally, the following were implemented as humane endpoints: signs of unacceptable pain, infection, severe ulceration, or surgical complications.
To investigate the therapeutic potential of Nal-P-113 in vivo, MN-11 cells were subcutaneously implanted into C57BL/6 mice. After eight days post-implantation, tumor volumes reached 50-75 mm^3. Then all animals were injected intratumorally (i.t.) with 50 µl of PBS (Negative control; n=5) or […] Nal-P-113 (n=11). […] At the end of the experiments (35 days), 10 out of 11 animals were survived in the treatment group. […] Nal-P-113 treatment appeared to be nontoxic since no there were effects on the body weight and intake of the animals at the end of the experiment (FIG. 9D and FIG. 9E).

CC(=O)N[C@@H](C)C(=O)N[C@@H](CCCCN)C(=O)N[C@@H](CCCNC(=N)N)C(=O)N[C@@H](Cc1ccc2ccccc2c1)C(=O)N[C@@H](Cc1ccc2ccccc2c1)C(=O)NCC(=O)N[C@@H](Cc1ccc(O)cc1)C(=O)N[C@@H](CCCCN)C(=O)N[C@@H](CCCNC(=N)N)C(=O)N[C@@H](CCCCN)C(=O)N[C@@H](Cc1ccccc1)C(=O)N[C@@H](Cc1ccc2ccccc2c1)C(N)=O [SEQ ID NO:3, Ac-AKR Nal Nal GYKRKFNal-NH2] (Ac-AKR[2Nal][2Nal]GYKRKF[2Nal]-NH2)
ATP release, relative light unit peak (MN-11 cells): ~ 11,000 RLU | toxicity (body weight and intake) ([1]; C57BL/6 mice, at the end of the experiment): nontoxic | animals survived ([1]; end of the experiments (35 days), i.t. Nal-P-113 for 3 consecutive days, n=11): 10 out of 11 | complete regression of the tumor ([1]; treatment group n=11, i.t.): 5 animals | tumor recurrence ([1]; treatment group n=11, i.t.): 6 animals

Reference: patent US20230338463A1, “ICD PEPTIDE AND USE THEREOF FOR HAVING CYTOTOXIC ACTIVITY ON CANCER CELLS” (NATIONAL TSING HUA UNIVERSITY, priority 2022, published 2023)
